EP0642790A2, “Alkali citrates and their use as medicaments, especially against arterosclerosis” (MADAUS AG, priority 1993, dated 1995)
Read-outs that look alike come from different tables or passages of the source.

Assays:
[1] = tested on: Aortasegmenten; experiment: Mineral content and calcium/phosphorus quotient in the implanted aorta segments; type: in vivo, Ratten (Sprague-Dawley-Ratten); settings: for Calcium, Konzentration in Aortasegmenten: mean (range of measured values), Kontrolle 4,77; for Magnesium, Konzentration in Aortasegmenten / Phosphor, Konzentration in Aortasegmenten: mean (range); for Magnesium, Konzentration in Aortasegmenten: Kontrolle 0,20; for Phosphor, Konzentration in Aortasegmenten: Kontrolle 4,47
Source text: (§1) Pentobarbital betäubten Ratten (Sprague-Dawley-Ratten) wurde die Aorta aseptisch entnommen, in acht 5 mm große Segmente geschnitten und in sterile Diffusionskammern (Fa. Millipore GmbH, Eschborn), mit einem Durchmesser von 14 mm und einer Porengröße von 0,22 µm fixiert. Jeweils 2 Kammern wurden in die Bauchhöhle einer Ratte implantiert. Die Versuchsgruppen bestanden aus mindestens 7 Ratten.
(§2) Jedem Versuchstier wurden pro Tag 2,1 mmol Citrat oral in zwei gleichen Dosen appliziert, nach 22 Tagen die beiden Diffusionskammern entnommen und die Aorta-Abschnitte licht-, elektronenmikroskopisch, röntgenspektrographisch sowie elementar-analytisch untersucht. Zur histologischen Untersuchung wurden die Gewebeabschnitte in 8% Formalin fixiert, die Aortaabschnitte für die lichtmikroskopischen Untersuchung nach Kossa mit Hämatoxylin und Eosin gefärbt sowie diejenigen zur elektronenmikroskopischen Untersuchung in 2,5% Glutaraldehyd und anschließend in 1% Osmiumtetroxyd fixiert. Die Bestimmung der maximalen Ablagerungsschichtdicke erfolgte mittels Okularmikrometer und die Flächenausdehnung der Ablagerungsschicht der jeweiligen Aortasegmente wurden nach bekannten Methoden ermittelt.

[2] = parameters: species or system Ratten (Sprague-Dawley-Ratten); settings: rat, in vivo
Source text: as §1, §2
Der Umstand, daß Alkalicitrate ohne Nebenwirkungen im Gegensatz zu bekannten o.g. Medikamente auf die Nierentätigkeit ist, ergibt sich auch aus der Bestimmung der Urinzusammensetzung [Tabelle (2B)). Die Konzentrationen von beispielsweise cAMP unterschieden sich nur unwesentlich von denen der Kontrolle.

[3] = tested on: Ablagerungen in Aortasegmenten; experiment: Calcification (deposit formation) of rat aorta segments in diffusion chambers implanted into the abdominal cavity of rats; histology and morphometry; type: in vivo, Ratten (Sprague-Dawley-Ratten); settings: for Dicke (Ablagerungsschichtdicke): 2,1 mmol Citrat per day orally in two doses, maximal deposit layer thickness by ocular micrometer, Kontrolle 55; for Dicke (Ablagerungsschichtdicke) / Minimierung der Flächenausdehnung der Ablagerungen im Vergleich zur Kontrolle / Fläche (Flächenausdehnung der Ablagerungen): 22 days; for Minimierung der Flächenausdehnung der Ablagerungen im Vergleich zur Kontrolle / Fläche (Flächenausdehnung der Ablagerungen): 2,1 mmol Citrat per day orally; for Fläche (Flächenausdehnung der Ablagerungen): Kontrolle 240; for histologisch-lichtmikroskopische Untersuchung der Querschnitte der Aortaabschnitte: Kontrolle: pronounced deposit formation; for relative Volumina %: relative to Kontrolle = 100; for relative Volumina: thickness multiplied by area, Kontrolle 13200; for Abnahme der Ablagerungsschichtdicke im Vergleich zu der Kontrolle (Faktor): factor versus Kontrolle (55 µm)
Source text: as §1
Folgende wäßrige Citrat-Lösungen wurden oral appliziert:
as §2

[4] = parameters: species or system Ratten (Sprague-Dawley-Ratten); settings: rat, in vivo; remark: listed apart in the source
Source text: as §1, §2
Das bedeutet, daß die Verstoffwechslung erhöhter Gaben von KNC, KC oder NC im Organismus nicht zu einer Veränderung der Serumzusammensetzung führt und daß daher die Nierenfiltration aufgrund der im Normbereich befindlichen Fraktionen der ultrafiltrierbaren und ionablen Fraktion des Serums nicht beeinträchtigt wird.
Um die Wirkung der Applikationen von KNC, NC und KC auf den Hormonhaushalt zu überprüfen, wurde die Konzentration von PTH im Blut analysiert.

Substance | Calcium, Konzentration in Aortasegmenten [1] | Magnesium, Konzentration in Aortasegmenten [1] | Phosphor, Konzentration in Aortasegmenten [1] | Citrat [2] | Magnesium [2] | cAMP [2] | Dicke (Ablagerungsschichtdicke) [3] [µm] | Fläche (Flächenausdehnung der Ablagerungen) [3] | histologisch-lichtmikroskopische Untersuchung der Querschnitte der Aortaabschnitte [3] | relative Volumina % [3] [%] | relative Volumina [3] | Calcium [4] | Calcium/ Protein [4] | Citrat [4] | Ges.CO2 [4] | Ges.Protein [4] | Kreatinin [4] | PTH [4] | arteriell-venöse pH-Wert, Konzentrationen an Gesamt-CO₂, Citrat, Magnesium und Phosphor im Blut [4] | pH [4] | other results
K₃C₆H₅O₇ x 1 H₂O [KC] | 5,09 (3,15-10,81) mmol/g | 0,28 (0,20-0,43)^2 mmol/g | 7,66 (2,97-17,74) mmol/g | 22,0 (11,3-25,0)^2 µmol/g | 3,4 (1,8-9,1)^3 µmol/mg | 12,9 (9,9-16,0) nmol/mg | 33 | 98 | gleichmäßig verteilte ohne besondere Erhebungen gestaltete Ablagerungsschicht | 25 | 3234 | 2,27 (2,20-2,43)^1 mmol/l | 44 (42-46) µmol/g | 163 (96-248) µmol/l | 45,0 (39,2-50,8) mmol/g | 51,0 (48,3-53,3)^2 g/l | 31,8 (25,6-39,8) µmol/l | 200-468 | nicht verändert | 7,39 (7,31-7,45) | Minimierung der Flächenausdehnung der Ablagerungen im Vergleich zur Kontrolle [3]: 41%
K₆Na₆H₃(C₆H₅O₇)₅ x 2 H₂O [KNC] | 4,93 (3,40-7,16) mmol/g | – | 6,80 (2,09-10,51)^1 mmol/g | 20,0 (13,2-30,3)^1 µmol/g | 3,7 (1,4-8,0)^3 µmol/mg | 11,6 (9,0-15,9) nmol/mg | 23 | 131 | gleichmäßig gestaltete (ohne besondere Erhebungen), stark verringerte Plaqueschicht | 23 | 3013 | 2,27 (2,22-2,33)^1 mmol/l | 45 (40-47) µmol/g | 164 (55-244) µmol/l | 40,9 (36,9-45,1) mmol/g | 50,7 (47,5-57,0)^2 g/l | 30,9 (15,9-35,4)^2 µmol/l | 200-553 | nicht verändert | 7,39 (7,34-7,43) | Magnesium in Aortasegmenten, Vergleich der Gruppen ([1]; in words): höchsten Magnesiumanstieg; Minimierung der Flächenausdehnung der Ablagerungen im Vergleich zur Kontrolle [3]: 54%; Abnahme der Ablagerungsschichtdicke im Vergleich zu der Kontrolle (Faktor) [3]: 2,4; Ablagerungsdicke im Gegensatz zur Kontrolle ([3]; thickness as percent of Kontrolle): < 55%; PTH-Level im Blut, Unterschied zur Kontrolle [4]: keine Unterschiede
Na₃C₆H₅O₇ x 2 H₂O [NC] | 4,20 (2,61-10,90) mmol/g | 0,28 (0,20-0,33)^1 mmol/g | 6,35 (3,34-14,60) mmol/g | 19,7 (15,8-30,4)^2 µmol/g | 4,0 (2,6-8,0)^3 µmol/mg | 13,5 (12,1-14,2) nmol/mg | – | 159 | gleichmäßig verteilte ohne besondere Erhebungen gestaltete Ablagerungsschicht | 31 | 4134 | 2,20 (2,04-2,30)^3 mmol/l | 46 (42-50) µmol/g | 171 (140-212) µmol/l | 40,9 (29,6-51,8) mmol/g | 48,3 (44,8-55,3)^2 g/l | 31,8 (30,1-33,6)^1 µmol/l | 200-415 | nicht verändert | 7,43 (7,35-7,49) | Abnahme der Ablagerungsschichtdicke im Vergleich zu der Kontrolle (Faktor) [3]: > 2
